Measurements from publication PMC2832019, “In Vitro Metabolic and Mitogenic Signaling of Insulin Glargine and Its Metabolites” (PLoS ONE, 2010).
Like-named read-outs stand apart in the source and are kept apart here.

Legend:
human IGF1R [1] = test: IGF1R autophosphorylation (In-Cell Western); assay type: cell-based; details: for EC50: MEF cells overexpressing IGF1R, 15 min at 37°C, In-Cell Western, means ± SEM, at least three times, read-out: IGF1R auto-phosphorylation EC50; for more potent in stimulation of IGF1R autophosphorylation: relative to human insulin
Text: (§1) CHO cells expressing either the IR-A or the IR-B isoform were used for IR autophosphorylation assays using In-Cell Western. For the analysis of IGF1R autophosphorylation the receptor was overexpressed in a mouse embryo fibroblast 3T3 Tet off cell line (BD Bioscience, Heidelberg, Germany) that was stably transfected with IGF1R tetracycline-regulatable expression plasmid resulting in the expression of ∼2.6×10^5 IGF1R per cell (as determined by FACS analysis, unpublished data). In order to determine the receptor tyrosine phosphorylation level, cells were seeded into 96-well plates and grown for 48 h. Cells were serum starved with serum-free medium αMEM (PAN Biotech GmbH, Aidenbach, Germany) for 3–4 h. […] After incubation the medium was discarded and the cells were fixed in 3.75% freshly prepared para-formaldehyde for 20 min. Cells were permeabilized with 0.1% Triton-X-100 in PBS for 20 min. Blocking was performed with Odyssey blocking buffer (LI-COR, Bad Homburg, Germany) overnight at 4°C. Anti-pTyr 4G10 (Millipore, Schwalbach, Germany) was incubated for 2 h at room temperature. After incubation of the primary antibody, cells were washed with PBS+0.1% Tween20. The secondary anti-mouse-IgG-800-CW antibody (Rockland, Gilbertsville, PA, USA) was incubated for 1 h. Results were normalized by the quantification of DNA with TO-PRO3 dye (Invitrogen, Karlsruhe, Germany). Data were obtained as relative units (RU) and are presented as fold over basal.
(§2) For each experiment, IC50 or EC50 values were obtained using the 4-parameter logistic model according to Ratkowsky and Reedy (1986). The adjustment was obtained by non-linear regression using the Levenberg-Marquardt algorithm in SAS v9.1.3 software via Biost@t-Speed V2.0-LTS internal application. If necessary, lower and upper asymptotes were set to 0 and 100, respectively.
(§3) Figure 4 Activity of insulin analogs on the human IGF1R and mitogenic potential in Saos-2 cells. Analysis of binding to the human IGF1R using [^125I]IGF-1 as radioactive ligand (A) and analysis of the insulin-stimulated autophosphorylation of the human IGF1R overexpressed in MEF cells (B) were done as described in figure 2 and Materials and Methods. Data are given as means ± SEM. […] Confluent cells were starved for 4 h and then incubated for 19 h with increasing concentrations of IGF-1, insulin or analog in serum free medium. [^14C]thymidine was added for further 6 h and the radioactivity measured in a Wallac Micro Scintillation counter. Data are given as means ± SEM from octuplicate sample.

human IR-B [2] = test: Competitive receptor binding (SPA), IR-B; details: for IC50: SPA, WGA PVT PEI beads, 2 µg membranes from CHO cells overexpressing IR-B, 100 pmol/L A14[^125I]-insulin, pH 7.8, 12 h, 23°C, means ± SEM, at least three times, read-out: IR-B affinity IC50; for IR-B binding, less active than human insulin: decrease relative to human insulin
Experimental: (§4) The binding of the different insulins to the human IR-A and IR-B was analyzed in a competitive binding assay using the scintillation proximity assay as previously described, [30]. […] Briefly, cells were grown to confluence and gently detached, transferred to a centrifugation tube followed by centrifugation for 10 minutes at 600×g at 4°C. The pellet was resuspended in ice-cold 2.25 STM buffer (2.25 mol/L sucrose, 5 mmol/L Tris-HCl pH 7.4, 5 mmol/L MgCl2, 1x Complete Protease Inhibitor) and disrupted using a hand-held Dounce homogenizer followed by sonication. This homogenate was transferred to a centrifugation tube, overlaid with 0.8 STM buffer (0.8 mol/L sucrose, 5 mmol/L Tris-HCl pH 7.4, 5 mmol/L MgCl2, 1x Complete Protease Inhibitor) and centrifuged for 90 minutes at 100 000×g at 4°C. The emerging pellicle at the interface was collected, transferred to a new tube and washed two times with PBS by centrifugation for 10 minutes at 1500×g. The final pellet was resuspended in a small volume of dilution buffer (50 mmol/L Tris-HCl pH 7.4, 5 mmol/L MgCl2, 1x Complete Protease Inhibitor) and homogenized with a Dounce homogenizer. These plasma membrane preparations were stored until usage at –80°C.
(§5) Binding experiments were conducted in 96-well microplates. Per well 2 µg of membranes were incubated with 0.25 mg wheat germ agglutinin polyvinyltoluene polyethylenimine SPA beads, 100 pmol/L A14[^125I]-insulin and various concentrations of unlabeled insulins in a binding buffer containing 0.05 mol/L Tris-HCl pH 7.8, 0.15 mol/L NaCl, 0.1% BSA, Complete Protease Inhibitor for 12 hours at room temperature (23°C). The radioactivity was measured at equilibrium in a microplate scintillation counter (Wallac Microbeta, Freiburg, Germany).
as §2
(§6) The binding of a constant concentration of [^125I]insulin to plasma membranes from CHO cells overexpressing either IR-A or IR-B was measured in presence of increasing concentrations of unlabeled competing ligand after incubation at room temperature for 12 h. All data has been corrected for non-specific binding and are expressed as percentage of [^125I]insulin in absence of competing ligand. To analyze the insulin-stimulated activation and subsequent autophosphorylation of the insulin receptor CHO cells overexpressing the human IR-A (C) or IR-B (D) were stimulated for 15 min at 37°C with increasing concentrations of peptides, then the cells were fixed with 3.7% PFA and the amount of phosphotyrosines was analyzed via In-Cell Western. The data represent mean values ± SEM of at least 3 individual experiments measured in quadruplicate.

human IR-B [3] = test: IR-B autophosphorylation (In-Cell Western); assay type: cell-based; details: for EC50: CHO cells overexpressing IR-B, 15 min at 37°C, In-Cell Western, means ± SEM, at least three times, read-out: IR-B auto-phosphorylation EC50
Text: as §1, §2, §6
Insulin receptor autophosphorylation was studied using CHO cells overexpressing either IR-A or IR-B. For detection an immunocytochemical microplate assay (In-Cell Western) based on two-colour fluorescence was applied.

human IGF1R [4] = test: Competitive binding, IGF1R; details: for IC50: [^125I]IGF-1 as radioactive ligand, means ± SEM, at least three times, read-out: IGF1R affinity IC50
Experimental: as §5, §2, §3

human IR-A = test: Competitive receptor binding (SPA), IR-A; details: for higher affinity for IR-A than IR-B: IR-A relative to IR-B; for IC50: SPA, WGA PVT PEI beads, 2 µg membranes from CHO cells overexpressing IR-A, 100 pmol/L A14[^125I]-insulin, pH 7.8, 12 h, 23°C, means ± SEM, at least three times, read-out: IR-A affinity IC50; for difference in affinity between IR-A and IR-B: IR-A vs IR-B, in words; for IR-A binding, less active than human insulin: decrease relative to human insulin
Experimental: as §4, §5, §2, §6

EC50 (human IGF1R [1]) [nM]	IR-B affinity less potent than human insulin (human IR-B [2]; IR-B, relative to human insulin) [fold]	IC50 (human IR-B [2]) [nM]	EC50 (human IR-B [3]) [nM]	IC50 (human IGF1R [4]) [nM]	higher affinity for IR-A than IR-B (human IR-A) [fold]	IR-A affinity less potent than human insulin (human IR-A; IR-A, relative to human insulin)	IC50 (human IR-A) [nM]	EC50 (human IGF1R [1]; listed as M2) [nM]	IR-B binding, more potent relative to human insulin (human IR-B [2]; relative to human insulin) [fold]	IR-A binding, more potent relative to human insulin (human IR-A; relative to human insulin) [fold]	Substance	less potent relative to IGF-1 (IGF1R autophosphorylation) (human IGF1R [1]) [times]	more potent in stimulation of IGF1R autophosphorylation (human IGF1R [1])	IR-B binding, less active than human insulin (human IR-B [2])	decrease in IR-B autophosphorylation activity (human IR-B [3]; relative to human insulin)	difference in affinity between IR-A and IR-B (human IR-A)	IR-A binding, less active than human insulin (human IR-A)	IGF1R affinity in words (human IGF1R [4])	EC50 (human IGF1R [1]; listed as M1) [nM]
2.9 ± 0.4	~300	171 ± 50	> 1000	0.89 ± 0.19	2.7	approximately 130 fold	64.5 ± 5.1				IGF-1: IGF-1 obtained from R&D Systems and Cell Sciences								
485 ± 43.6		1.09 ± 0.06	21.4 ± 2.3	427 ± 20.6			0.93 ± 0.16	> 400			[Gly^A21,des-Thr^B30]insulin [Glargine M2]			40–50%		no difference	40–50%	significantly reduced	
179 ± 19.6		1.08 ± 0.06	20.9 ± 1.3	80 ± 10.2			0.78 ± 0.03				[Gly^A21,Arg^B31]insulin [Glargine IM]		2 fold	40–50%		no difference	40–50%		
72.7 ± 7.6		0.21 ± 0.03	3.32 ± 0.78	104 ± 12.8	3.5		0.06 ± 0.01		2.7	8.2	[Asp^B10]insulin	~25	about 5 fold						
447 ± 38.7			11.7 ± 1.4								Human insulin: human insulin produced by recombinant DNA techniques or enzymatic semisynthesis								

Substance	EC50 (human IGF1R [1]) [nM]	IR-B affinity less potent than human insulin (human IR-B [2]; IR-B, relative to human insulin) [fold]	IC50 (human IR-B [2]) [nM]	EC50 (human IR-B [3]) [nM]	IC50 (human IGF1R [4]) [nM]	higher affinity for IR-A than IR-B (human IR-A) [fold]	IR-A affinity less potent than human insulin (human IR-A; IR-A, relative to human insulin)	IC50 (human IR-A) [nM]	EC50 (human IGF1R [1]; listed as M2) [nM]	IR-B binding, more potent relative to human insulin (human IR-B [2]; relative to human insulin) [fold]	IR-A binding, more potent relative to human insulin (human IR-A; relative to human insulin) [fold]	less potent relative to IGF-1 (IGF1R autophosphorylation) (human IGF1R [1]) [times]	more potent in stimulation of IGF1R autophosphorylation (human IGF1R [1])	IR-B binding, less active than human insulin (human IR-B [2])	decrease in IR-B autophosphorylation activity (human IR-B [3]; relative to human insulin)	difference in affinity between IR-A and IR-B (human IR-A)	IR-A binding, less active than human insulin (human IR-A)	IGF1R affinity in words (human IGF1R [4])	EC50 (human IGF1R [1]; listed as M1) [nM]
[Gly^A21,Arg^B31,Arg^B32]insulin [Glargine]	87.5 ± 10		1.1 ± 0.12	23.6 ± 2.1	63.2 ± 19.9			0.83 ± 0.08				~30	about 5 fold	40–50%	30–50%	no difference	40–50%		
[Gly^A21]insulin [Glargine M1]	644 ± 56.9		1.35 ± 0.2	18.1 ± 1.7	649 ± 31.9			1.02 ± 0.03						40–50%		no difference	40–50%	significantly reduced	> 400
